SMILES | melting point
CCCOc1ccc(C2=NN(C(=S)Nc3ccc(C(F)(F)F)cc3)CC2NCC(=O)OC)cc1 (stereo unspecified) | 167 to 169 °C
COc1ccc(CC2CCN(C(=O)C(=O)Nc3ccc4[nH]c(=O)oc4c3)CC2)cc1 | 193 to 197 °C
CN(C)CCCCC(N)=O | 86 to 87 °C
COC(=O)c1ccc(CC23CCCN2C(=O)N(c2cc(Cl)c(O)c(Cl)c2)C3=O)cc1 (stereo unspecified) | 105 °C
O=C1CC[C@@H](CCCO)[C@H](c2ccc(OCc3ccccc3)cc2OCc2ccccc2)C1 (relative stereo) | 110 to 117 °C
N#Cc1ccc(-c2ncc(C(F)(F)F)cc2Cl)cc1O | 155 to 157 °C
CCC1=C(C(=O)O)C(C(F)(F)F)Oc2ccc(Cl)cc21 (stereo unspecified) | 171 to 172 °C
CN(C)Cc1ccc(CSCCNC2=NS(=O)(=O)N=C2N(C)C)o1 | 139 to 142 °C
CCOC(=O)CC(c1ccccc1)C(C#N)c1ccccc1 (stereo unspecified) | 60.5 to 63 °C
CC(C)N(CCN1C(=O)C(=O)c2cc(Br)ccc21)C(C)C | 91 to 93 °C
COc1ccc2cnc(N)nc2c1C(C)C | 112 to 113 °C
COc1ccc(C=CC(=O)NCCc2ccc(OC(C)(C)C(=O)O)cc2)cc1 | 158 to 159 °C
O=C(CCc1cc(-c2ccccc2)nc2ccccc12)N1CCCCC1 | 110 °C
C#CCN(C)c1c(-c2c(F)cc(F)cc2F)c(OC)nc2ncnn12 | 119 °C
Cc1ccc(C(=O)NC(NC(=NC#N)Nc2cncnc2)C(Cl)(Cl)Cl)cc1 (stereo unspecified) | 186 to 188 °C
COc1ccc(C2=NN(C3CCN(C(=O)CS(C)(=O)=O)CC3)C(=O)[C@@H]3CC=CC[C@H]23)cc1OC | 169 to 170 °C
CCC(C)(C)c1ccc(OCC2CN=C(N)O2)cc1 (stereo unspecified) | 104 °C
CCN1c2ncc(CS(=O)(=O)c3ccccc3)cc2C(=O)N(C)c2ccc(Cl)nc21 | 96 to 98 °C
CC(=O)N1c2ccccc2-c2c([N+](=O)[O-])cnn2C1c1ccc(Cl)cc1 (stereo unspecified) | 183 to 184 °C
COc1ccc(C(=O)c2[nH]c3ccc(Cl)cc3c2CC(=O)O)cc1 | 232 to 235 °C
O/N=C1\CCCc2c1c1ccccc1n2-c1ccc(OCc2ccccc2)cc1 | 241 to 243 °C
CC(C)(NC=O)C(=O)O | 130 to 131 °C
Cc1cc(S)n2nc(C(=O)O)nc2n1 | 215 to 217 °C
CC#CCOc1cc(OCC#CCC)ncn1 | 67.4 °C

SMILES | melting point
Cc1oc(COc2ccc(/C=C/CO)cc2)nc1-c1ccccc1 | 154 to 155 °C
Cc1cc(N2CCN(Cc3ccccc3)C2=O)sc1C(=O)NCc1cccnc1 | 130 to 131 °C
c1ccc(Nc2nc[nH]c3ncc(-c4ccccc4)c2-3)cc1 | 208 to 209 °C
COc1ccc(N2C(=O)N(c3cccc(C(N)=O)c3)c3nc(Nc4cccc(CCN(C)C)c4)ncc3C2C)cc1 (stereo unspecified) | 215 to 230 °C
CCCCCCCCCCCCS(=O)(=O)Nc1ccccc1C(=O)Nc1cc(Cl)c2c(c1O)CN(C)C(=O)N2 | 183 to 187 °C
CCCCCCCCCCC1COC(=O)N1C(C)=O (stereo unspecified) | 51 to 53 °C
Cc1c(C)n(Cc2ccccc2)c2ncnc(Cl)c12 | 115 to 116 °C
CCc1cccc(CC)c1C(=O)Nc1cccc2c1CCN(C)C2 | 186 to 188 °C
CCn1c(=O)c(-c2cccs2)cc2cnc(Nc3ccccc3)nc21 | 223 to 225 °C
COC(=O)CCCc1cc2nc(Cl)ccc2n1S(=O)(=O)c1ccc(C(C)C)cc1 | 75 °C
CSc1cc2[nH]ccc2cc1F | 51 °C
O=C(O)c1cccc2[nH]c(=O)c(-c3csc(-c4ccncc4)n3)cc12 | > 250 °C
Cc1cc(Cl)c(N)c([N+](=O)[O-])c1 | 68.5 to 69.5 °C
CCOC(=O)Cn1c(=O)c(=O)[nH]c2cc(C(F)(F)F)ccc21 | 250 to 251 °C
CCCCC1=NC2(CCCC2)C(=O)N1Cc1ccc(-c2ccccc2S(=O)(=O)Nc2onc(C)c2C)c(COCC)c1 | 74 to 80 °C
COc1ccc2c(c1OC)CCN(Cc1ccc(-c3ccc(-c4cccc(N)n4)cc3)cc1)C2 | 205 to 209 °C
CCCc1nc(C(C)(C)O)c(C(=O)OC(C)OC(=O)OC(C)C)n1Cc1ccc(-c2ccccc2C(=O)O)cc1 (stereo unspecified) | 94 to 96 °C
Nc1ncnc2sc(Cc3ccncc3)c(-c3ccc(NC(=O)Nc4cccc(C(F)(F)F)c4)cc3)c12 | 162 to 166 °C
N#Cc1cncc(OC2SCC(O)C(O)C2O)c1 (stereo unspecified) | 149 °C
COc1ccc2nc(COc3ccc4c(c3)C(SCCC(=O)O)c3ccccc3CO4)ccc2c1 (stereo unspecified) | 174 to 175 °C
C=C(COC)c1ccc(NC(=O)N(C)C)cc1 | 96 to 97 °C
Cc1ccc(-c2nc3c(O)cccc3s2)cc1 | 164 to 166 °C
CCCCn1nc2c(N)nc3ccccc3c2c1CC(C)C | 165 to 166 °C
CCN(CC)C(=O)c1ccc(OC)cc1-c1ccccc1 | 64 to 65 °C

SMILES | melting point
O=C1COc2cc(NC(=O)C(=O)O)ccc2N1 | 232 to 236 °C
CCCC(CCC)C(=O)c1ccc(O)c(C(=O)O)c1 | 118 °C
CC(C)CCC(=O)N[C@@H](CC(C)C)C(=O)N[C@@H](C(C)C)[C@@H](O)c1c(-c2ccccc2)c1=O | 148 to 151 °C
CCOC(=O)C1C(=O)NC(=O)CC1c1ccc(F)cc1 (stereo unspecified) | 97 to 99 °C
CC(O)=C(C#N)C(=O)Nc1ccc([N+](=O)[O-])c(C)c1 | 231 to 233 °C
CCCNC(=O)C(C)Cc1ccc2cccc(Cc3ccc(C(=O)OC)cc3OC)c2c1 (stereo unspecified) | 130 °C
NC(=S)NCCC(O)(c1ccc(F)cc1)c1ccccn1 (stereo unspecified) | 148 to 149 °C
CCCCNc1ncc2ccc(=O)n(C)c2n1 | 146 to 147 °C
COc1ccccc1Oc1c(Cl)nc(SC)nc1NS(=O)(=O)c1ccc(C(C)(C)C)cc1 | 123 to 124 °C
NS(=O)(=O)c1cccc(-c2noc(-c3cnn4ccc(-c5ccc(Cl)cc5)nc34)n2)c1 | 223 °C
Cc1ccc(C(=O)C(=C2NCCCS2)[N+](=O)[O-])cc1 | 141 to 143 °C
COCCc1nc2c(N)nc3ccccc3c2n1CCCCCCCCNS(C)(=O)=O | 109 to 110 °C
N#CC(C#N)=C1N(CCCN2CCOCC2)CCN1C1CCN(C2CC2)CC1 | 104 to 106 °C
CCN(CCCc1c[nH]c2c(Cl)cccc12)C1COc2c(F)ccc(C(N)=O)c2C1 (stereo unspecified) | 146 to 152 °C
Cc1nc2c3c(ccc2[nH]1)[C@H]1OCCO[C@@H]1[C@@H](c1ccccc1)O3 | 260 °C
Cc1cc(OCc2ccc(-c3ccc(C(F)(F)F)c(F)c3)nc2C)ccc1OC(C)(C)C(=O)O | 175 to 176 °C
Cc1ccc(NC(=O)/C=C/c2ccccc2C(F)(F)F)cc1NC(=N)c1ccccc1 | 112 to 116 °C
CCOC(=O)c1nnc2ccc(NS(C)(=O)=O)cc2c1O | 274 to 275 °C
CC(C)(C)OC(=O)C[C@H](NC(=O)CNC(=O)c1csc(NC(=O)NCc2ccccc2)n1)C(=O)OC(C)(C)C | 111 to 114 °C
OCc1cccc(Nc2ncc(-c3ccccc3)s2)n1 | 196 to 198 °C
COc1nc(O)c(C(=O)O)nc1Cl | 170 to 173 °C
CCCc1c(S(=O)(=O)CCCOc2ccc(C(C)=O)c(OCCCC(=O)OCC)c2CCC)ccc(C(C)=O)c1O | 77 to 79 °C
COc1ccc(C(=O)CCCCCN2CCC(CNC(=O)c3cc(Cl)c(N)cc3OC)CC2)cc1F | 112 to 113 °C
